The source of these data is patent publication US5968907A (priority 1997, dated 1999).

The target of one assay is cholera toxin (Vibrio cholerae serotype O1, UniProt P01556). Description: biochemical. As to conditions: read-out: inhibition of binding of cholera toxin to ganglioside GD1b.
In assay [1] the target is heat-labile enterotoxin from E. coli (Escherichia coli, UniProt P0CK94). Type of assay: binding. As to conditions: at the concentration employed in the assay.
The target in the next assay is CFA I pili (Escherichia coli, UniProt P0CK93+P25734). Kind of assay: biochemical. The note with it: read-out: inhibition of CFA I pili binding to glycophorin.
CFA I pili, sequence (P0CK93 24-170): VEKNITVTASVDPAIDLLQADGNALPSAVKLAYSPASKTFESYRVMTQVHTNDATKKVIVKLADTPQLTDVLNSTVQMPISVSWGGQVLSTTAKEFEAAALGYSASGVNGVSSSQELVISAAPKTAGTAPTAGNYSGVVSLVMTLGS
CFA I pili, sequence (P25734 23-360): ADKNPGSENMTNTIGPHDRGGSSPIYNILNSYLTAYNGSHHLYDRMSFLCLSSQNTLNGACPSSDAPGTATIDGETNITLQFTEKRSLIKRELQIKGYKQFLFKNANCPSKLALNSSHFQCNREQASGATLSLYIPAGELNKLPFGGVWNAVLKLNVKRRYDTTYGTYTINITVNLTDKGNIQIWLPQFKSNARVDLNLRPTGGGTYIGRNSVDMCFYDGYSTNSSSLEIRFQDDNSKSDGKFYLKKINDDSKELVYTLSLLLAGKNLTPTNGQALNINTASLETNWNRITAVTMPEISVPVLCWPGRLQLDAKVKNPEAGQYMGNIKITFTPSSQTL

heat-labile enterotoxin from E. coli, sequence (P0CK94 whole entry, looked up): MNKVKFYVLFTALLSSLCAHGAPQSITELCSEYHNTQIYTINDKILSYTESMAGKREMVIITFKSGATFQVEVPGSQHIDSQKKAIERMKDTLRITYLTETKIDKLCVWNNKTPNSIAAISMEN
cholera toxin, sequence (P01556 22-124 limits assumed): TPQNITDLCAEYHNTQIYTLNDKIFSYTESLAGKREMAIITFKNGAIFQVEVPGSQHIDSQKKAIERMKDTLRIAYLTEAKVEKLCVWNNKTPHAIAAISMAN

As for `OC[C@H]1O[C@@H](SC2CCCC2O)[C@H](O)[C@@H](O)[C@H]1O` (stereo partly drawn) [Example A1, 2-Hydroxycyclopent-1-yl 1-Thio-β-D-galactopyranoside], the inhibition at 1000 µg/mL on cholera toxin was under 20%. The “inhibition of binding of heat-labile enterotoxin to ganglioside GD1b” value (“inhibition of binding … to ganglioside GD1b” for short) in assay [1] was “at least 20%”.
`OC[C@H]1O[C@@H](SCC2C3CCC(C3)C2O)[C@H](O)[C@@H](O)[C@H]1O` (stereo partly drawn) [Example A4, (3-Hydroxynorborn-2-yl)methyl 1-Thio-β-D-galactopyranoside]: the inhibition at 1000 µg/mL on cholera toxin was under 20%. For the same compound, the “inhibition of binding … to ganglioside GD1b” value in assay [1] is “at least 20%”.
On to `OC[C@H]1O[C@@H](SC2CCC(O)C2)[C@H](O)[C@@H](O)[C@H]1O` (stereo partly drawn) [Example A7, 3-Hydroxycyclopent-1-yl 1-Thio-β-D-galactopyranoside], for which the inhibition at 1000 µg/mL on cholera toxin was under 20%. Moreover, the “inhibition of binding … to ganglioside GD1b” value in assay [1] was under 20%.
As to `OC[C@H]1O[C@@H](SC2CCCC(O)C2)[C@H](O)[C@@H](O)[C@H]1O` (stereo partly drawn) [Example A10, 3-Hydroxycyclohex-1-yl 1-Thio-β-D-galactopyranoside], the inhibition at 1000 µg/mL at cholera toxin is under 20%. Besides, the “inhibition of binding … to ganglioside GD1b” value in assay [1] is on record as “at least 20%”.
Consider `NC1CCCC1S[C@@H]1O[C@H](CO)[C@H](O)[C@H](O)[C@H]1O` (stereo partly drawn) [Example B1, 2-Aminocyclopent-1-yl 1-Thio-β-D-galactopyranoside], for which the inhibition at 1000 µg/mL at cholera toxin was under 20%. Besides, in assay [1], the “inhibition of binding … to ganglioside GD1b” value is reported as “at least 20%”.
In the case of `NC1C2CCC(C2)C1CS[C@@H]1O[C@H](CO)[C@H](O)[C@H](O)[C@H]1O` (stereo partly drawn) [Example B4, (3-Aminonorborn-2-yl)methyl 1-Thio-β-D-galactopyranoside], the inhibition at 1000 µg/mL on cholera toxin was under 20%. Moreover, in assay [1], the “inhibition of binding … to ganglioside GD1b” value was “at least 20%”.
In the case of `NC1CCCCC(S[C@@H]2O[C@H](CO)[C@H](O)[C@H](O)[C@H]2O)C1` (stereo partly drawn) [Example B5, 3-Aminocyclohept-1-yl 1-Thio-β-D-galactopyranoside], the inhibition at 1000 µg/mL on CFA I pili was 13 to 71%.
On to `NC1CCC(S[C@@H]2O[C@H](CO)[C@H](O)[C@H](O)[C@H]2O)C1` (stereo partly drawn) [Example B7, 3-Aminocyclopent-1-yl 1-Thio-β-D-galactopyranoside], for which the inhibition at 1000 µg/mL on cholera toxin is at least 20%. In assay [1], the “inhibition of binding … to ganglioside GD1b” value is “at least 20%”.
In the case of `NC1CCCC(S[C@@H]2O[C@H](CO)[C@H](O)[C@H](O)[C@H]2O)C1` (stereo partly drawn) [Example B10, 3-Aminocyclohex-1-yl 1-Thio-β-D-galactopyranoside], the inhibition at 1000 µg/mL on cholera toxin is under 20%. Moreover, the “inhibition of binding … to ganglioside GD1b” value in assay [1] is recorded as “at least 20%”.
Take `CC1(C)CCC(S[C@@H]2O[C@H](CO)[C@H](O)[C@H](O)[C@H]2O)CC1N` (stereo partly drawn) [Example B11, 3-Amino-4,4-dimethylcyclohex-1-yl 1-Thio-β-D-galactopyranoside]: the “inhibition of binding … to ganglioside GD1b” value in assay [1] is recorded as “at least 20%”.
Same read-out and setting: the same measure for `CC(=O)NC1CCCCC1S[C@@H]1O[C@H](CO)[C@H](O)[C@H](O)[C@H]1O` (stereo partly drawn) [Example C2, 2-Acetamidocyclohex-1-yl 1-Thio-β-D-galactopyranoside]: “at least 20%”.
With `CC(=O)NC1CCCCC(S[C@@H]2O[C@H](CO)[C@H](O)[C@H](O)[C@H]2O)C1` (stereo partly drawn) [Example C5, 3-Acetamidocyclohept-1-yl 1-Thio-β-D-galactopyranoside], at cholera toxin, the inhibition at 1000 µg/mL is at least 20%. For the same compound, in assay [1], the “inhibition of binding … to ganglioside GD1b” value is on record as “at least 20%”.
`CC(=O)NC1CCC(S[C@@H]2O[C@H](CO)[C@H](O)[C@H](O)[C@H]2O)C1` (stereo partly drawn) [Example C7, 3-Acetamidocyclopent-1-yl 1-Thio-β-D-galactopyranoside]: at cholera toxin, the inhibition at 1000 µg/mL is at least 20%. Also, the “inhibition of binding … to ganglioside GD1b” value in assay [1] was “at least 20%”.
For `CC(=O)NC1CCCC(S[C@@H]2O[C@H](CO)[C@H](O)[C@H](O)[C@H]2O)C1` (stereo partly drawn) [Example C10, 3-Acetamidocyclohexyl 1-Thio-β-D-galactopyranoside] the same measures were at least 20% and under 20%.
For `CC(=O)NC1CC(S[C@@H]2O[C@H](CO)[C@H](O)[C@H](O)[C@H]2O)CCC1(C)C` (stereo partly drawn) [Example C11, 3-Acetamido-4,4-dimethylcyclohexyl 1-Thio-β-D-galactopyranoside], in assay [1], the “inhibition of binding … to ganglioside GD1b” value was “at least 20%”.
As to `O=C(O)c1ccccc1C(=O)NC1CCCCC1S[C@@H]1O[C@H](CO)[C@H](O)[C@H](O)[C@H]1O` (stereo partly drawn) [Example D2, 2-(2-Carboxybenzamido)cyclohex-1-yl 1-Thio-β-D-galactopyranoside], in assay [1], the “inhibition of binding … to ganglioside GD1b” value is under 20%.
For the compound `O=C(O)c1ccccc1C(=O)NC1C2CCC(C2)C1CS[C@@H]1O[C@H](CO)[C@H](O)[C@H](O)[C@H]1O` (stereo partly drawn) [Example D4, [3-(Carboxybenzamido)norborn-2-yl]methyl 1-Thio-β-D-galactopyranoside], the “inhibition of binding … to ganglioside GD1b” value in assay [1] is “at least 20%”.
As to `O=C(O)c1ccccc1C(=O)NC1CCCCC(S[C@@H]2O[C@H](CO)[C@H](O)[C@H](O)[C@H]2O)C1` (stereo partly drawn) [Example D5, 3-(2-Carboxybenzamido)cyclohept-1-yl 1-Thio-βD-galactopyranoside], the inhibition at 1000 µg/mL on cholera toxin is at least 20%. Besides, the “inhibition of binding … to ganglioside GD1b” value in assay [1] was “at least 20%”.
Take `O=C(O)CNC1CCCC1S[C@@H]1O[C@H](CO)[C@H](O)[C@H](O)[C@H]1O` (stereo partly drawn) [Example E1, Nα-[2-(1-Thio-β-D-galactopyranosyl)cyclopent-1-yl]glycine]: on cholera toxin, the inhibition at 1000 µg/mL is at least 20%. Further, the “inhibition of binding … to ganglioside GD1b” value in assay [1] was “at least 20%”.
For `O=C(O)CNC1CCCCC1S[C@@H]1O[C@H](CO)[C@H](O)[C@H](O)[C@H]1O` (stereo partly drawn) [Example E2, Nα-[2-(1-Thio-β-D-galactopyranosyl)cyclohex-1-yl]gIycine], the “inhibition of binding … to ganglioside GD1b” value in assay [1] is listed as “at least 20%”.
As for `O=C(O)CNC1C2CCC(C2)C1CS[C@@H]1O[C@H](CO)[C@H](O)[C@H](O)[C@H]1O` (stereo partly drawn) [Example E4, Nα-[3-((1-Thio-β-D-galactopyranosyl)methyl)norborn-2-yl]glycine], the “inhibition of binding … to ganglioside GD1b” value in assay [1] was “at least 20%”.
`O=C(O)CNC1CCCC(S[C@@H]2O[C@H](CO)[C@H](O)[C@H](O)[C@H]2O)C1` (stereo partly drawn) [Example E10, Nα-[3-(1-Thio-β-D-galactopyranosyl)cyclohex-1-yl]glycine]: the “inhibition of binding … to ganglioside GD1b” value in assay [1] was “at least 20%”.
On the same count and under the same terms, in the case of `CC1(C)CCC(S[C@@H]2O[C@H](CO)[C@H](O)[C@H](O)[C@H]2O)CC1NCC(=O)O` (stereo partly drawn) [Example E11, Nα-[5-(1-Thio-β-D-galactopyranosyl)-2 ,2-dimethylcyclohex-1-yl]glycine] it was “at least 20%”.
In the case of `O=C(O)CCNC1CCCC1S[C@@H]1O[C@H](CO)[C@H](O)[C@H](O)[C@H]1O` (stereo partly drawn) [Example F1, Nβ-[2-(1-Thio-β-D-galactopyranosyl)cyclopent-1-yl]-β-alanin], the inhibition at 1000 µg/mL on cholera toxin was under 20%. In addition, the “inhibition of binding … to ganglioside GD1b” value in assay [1] is “at least 20%”.
With `O=C(O)CCNC1CCCCC1S[C@@H]1O[C@H](CO)[C@H](O)[C@H](O)[C@H]1O` (stereo partly drawn) [Example F2, Nβ-[2-(1-Thio-β-D-galactopyranosyl)cyclohex-1-yl]-β-alanine], in assay [1], the “inhibition of binding … to ganglioside GD1b” value was “at least 20%”.
On to `O=C(O)CCNC1CCCCC(S[C@@H]2O[C@H](CO)[C@H](O)[C@H](O)[C@H]2O)C1` (stereo partly drawn) [Example F5, Nβ-[3-(1-Thio-β-D-galactopyranosyl)cyclohept-1-yl]-β-alanine], for which the inhibition at 1000 µg/mL on cholera toxin was under 20%. The “inhibition of binding … to ganglioside GD1b” value in assay [1] was “at least 20%”.
For `O=C(O)CCNC1CCC(S[C@@H]2O[C@H](CO)[C@H](O)[C@H](O)[C@H]2O)C1` (stereo partly drawn) [Example F7, N-β-[3-(1-Thio-β-D-galactopyranosyl)cyclopent-1-yI]-β-alanine], on cholera toxin, the inhibition at 1000 µg/mL was under 20%. Besides, the “inhibition of binding … to ganglioside GD1b” value in assay [1] is “at least 20%”.
With `O=C(O)CCNC1CCCC(S[C@@H]2O[C@H](CO)[C@H](O)[C@H](O)[C@H]2O)C1` (stereo partly drawn) [Example F10, Nβ-[3-(1-Thio-β-D-galactopyranosyl)cyclohex-1-yl]-β-alanine], the inhibition at 1000 µg/mL at cholera toxin is under 20%. Also, the “inhibition of binding … to ganglioside GD1b” value in assay [1] is “at least 20%”.
Consider `CC1(C)CCC(S[C@@H]2O[C@H](CO)[C@H](O)[C@H](O)[C@H]2O)CC1NCCC(=O)O` (stereo partly drawn) [Example F11, N-β-[5-(1-Thio-α-D-galactopyranosyl)-2,2-dimethylcyclohex-1-yl]-β-alanine], for which the “inhibition of binding … to ganglioside GD1b” value in assay [1] is “at least 20%”.
Consider `CC(C)C[C@H](NC1CCCCC1S[C@@H]1O[C@H](CO)[C@H](O)[C@H](O)[C@H]1O)C(=O)O` (stereo partly drawn) [Example G2, Nα-[2-(1-Thio-β-D-galactopyranosyl)cyclohex-1-yl]-L-leucine], for which, at cholera toxin, the inhibition at 1000 µg/mL was at least 20%. Moreover, the “inhibition of binding … to ganglioside GD1b” value in assay [1] was under 20%.
For the compound `CC(C)C[C@H](NC1CCCCC(S[C@@H]2O[C@H](CO)[C@H](O)[C@H](O)[C@H]2O)C1)C(=O)O` (stereo partly drawn) [Example G5, Nα-[1-(1-Thio-β-D-galactopyranosyl)cyclohept-3-yl]-L,Ieucine], at cholera toxin, the inhibition at 1000 µg/mL was at least 20%. The “inhibition of binding … to ganglioside GD1b” value in assay [1] was “at least 20%”.
In the case of `O=C(O)[C@H](Cc1c[nH]c2ccccc12)NC1CCCCC(S[C@@H]2O[C@H](CO)[C@H](O)[C@H](O)[C@H]2O)C1` (stereo partly drawn) [Example I5, Nα-[3-(1-Thio-β-D-galactopyranosyl)cyclohept-1-yl]-L-tryptophan], on cholera toxin, the inhibition at 1000 µg/mL is at least 20%. In assay [1], the “inhibition of binding … to ganglioside GD1b” value is listed as “at least 20%”.
As to `N=C(N)NCCC[C@H](NC1CCC(S[C@@H]2O[C@H](CO)[C@H](O)[C@H](O)[C@H]2O)C1)C(=O)O` (stereo partly drawn) [Example J7, Nα-[3-(1-Thio-β-D-galactopyranosyl)cyclopent-1-yl]-L-arginine], the inhibition at 1000 µg/mL at cholera toxin is under 20%. In assay [1], the “inhibition of binding … to ganglioside GD1b” value is “at least 20%”.

In general, inhibition refers to how much of the control response was suppressed.
